# From US20140193529A1, “Modulation of Thymosin Beta-4 in Skin” (AVON PRODUCTS, INC., priority 2013, published 2014)
# Columns and labels:
# [1] = system: thymosin beta-4 (TMSB4X) mRNA; assay: Thymosin beta-4 stimulation assay (QUANTIGENE multiplex mRNA assay); assay type: cell-based; conditions: human dermal fibroblasts, 24 hours
# Description: Normal human dermal fibroblasts were cultured in 96-well tissue culture-treated plates, containing appropriate culture medium. Stock solutions of actives were made in an appropriate vehicle (water or DMSO). Cells were treated with test material or respective vehicle control diluted in growth medium for 24 hours in a humidified 37° C. incubator with 10% CO2. After incubation, growth medium from each plate was removed and 100 μL, of lysis buffer was added to the wells and placed in 37° C. incubator with 10% CO2 for 30 minutes. At the end of incubation, the cell lysates were collected in freezer plates and placed in −80° C. freezer until analysis. Changes in mRNA for thymosin beta-4 (TMSB4X) after treatment were analyzed using Affymetrix's QUANTIGENE® multiplex assay that employs a branched DNA signal amplification technology, following the manufacturer's instructions (Affymetrix, Calif.). Percent increase in mRNA for thymosin beta-4 (TMSB4X) was calculated by comparing the test results to the control. The percent up-regulation is converted to a scaled score as shown below in Table 2.
# A variety of botanical extracts were tested for the ability to up-regulate Thymosin beta-4 according to the method of Example 1. The concentrations of each extract are provided based on the dry weight of the given plant extract, by which is meant the weight of the extract after volatile extraction solvents have been removed. The cells tested were primary human dermal fibroblasts.
# Synthetic compounds 1-4 were also tested as active agents for the ability to upregulate thymosin beta-4 according to the method of Example 1.
# thymosin beta-4 = assay: Mode of operation of retinol in human skin
# [2] = system: IL-8 gene and protein expression; assay: Anti-inflammatory effect of TB-4 in TNF-alpha treated human dermal fibroblasts (qPCR, ELISA, PCR array); assay type: cell-based
# Description: Commercially obtained human dermal fibroblasts were treated with tumor necrosis factor alpha for 6 hours to induce inflammation. Cells were either pre-treated with recombinant TB-4 or control media to assess its anti-inflammatory effect. Cell lysates and media were collected and qPCR and ELISA were performed to assess IL-8 gene and protein expression. Human cytokines and chemokines PCR array was also performed to investigate the impact of TB-4 on the expression profile of key secreted proteins in the inflammation pathway. […] Therefore, modulating endogenous TB-4 could be adopted as an avenue to battle inflammatory skin damage resulting from skin chronological aging and photoaging.
compound,measurement,setting,value
CCOCCCNC(=O)c1cc(NC(=O)/C=C/c2ccccc2)ccc1N1CCC(Cc2ccccc2)CC1 [Compound 1],Thymosin beta-4 (TMSB4X) Degree of Upregulation,[1]; compound Conc. 0.001%,++ (41-60)
CC1=C(/C=C/C(C)=C/C=C/C(C)=C/CO)C(C)(C)CCC1 [retinol],upregulation of thymosin beta-4,thymosin beta-4,potent upregulator
CCc1c(C(=O)N2CCCC2)cnn1-c1ccccc1Cl [Compound 4],Thymosin beta-4 (TMSB4X) Degree of Upregulation,[1]; compound Conc. 0.00001%,+ (21-40)
Cc1ccc(C(=O)CC(NCc2ccccc2)C(=O)O)cc1 (stereo not shown) [Compound 2],Thymosin beta-4 (TMSB4X) Degree of Upregulation,[1]; compound Conc. 0.0001%,+ (21-40)
"TB-4: recombinant thymosin beta-4, 43 amino acid peptide, 4.9 kDa (SDKPDMAEIEKFDKSKLKKTETQEKNPLPSKETIEQEKQAGES; UniProt P62328 2-44, looked up)",regulation of key cytokines and chemokines genes,"[2]; human cytokines and chemokines PCR array, TNF-alpha treated fibroblasts",significantly regulates
same,suppression of IL-8 protein secretion caused by TNF-alpha stimulation,"[2]; pre-treatment with recombinant TB-4, TNF-alpha 6 hours, ELISA",greater than 50%
same,suppression of IL-8 gene expression caused by TNF-alpha stimulation,"[2]; pre-treatment with recombinant TB-4, TNF-alpha 6 hours, qPCR",greater than 50%
